Reference: patent US12565485B2, “Solid forms of 1-((S)-4-((R)-7-(6-amino-4-methyl-3-(trifluoromethyl)pyridin-2-yl)-6-chloro-8-fluoro-2-(((s)-1-methylpyrrolidin-2-yl)methoxy)quinazolin-4-yl)-3-methylpiperazin-1-yl)prop-2-en-1-one” (Genentech, Inc., priority 2022, dated 2026)

Legend:
Assay type in all cases: physicochemical
[1] = Heating under N2 protection (VT-XRPD), form change
Experimental: Compound B Form A was obtained from an acetone system and the sample was air dried at RT. […] (peak temperature) before the possible overlapped peak with peak temperature at 156.3° C. (FIG. 12). Based on the integrals, the stoichiometric ratio of fumaric acid:freebase was determined to be 1.03. A peak of acetone was observed and approximately 0.49 molar acetone (4.4 wt %) was detected. The HPLC purity of Compound B Form A was determined to be 93.56 area %. […] Around 0.39 molar acetone (3.5 wt %) was still detected. One endotherm at 58.7° C. and an overlapped peak with peak temperature at 157.1° C. were still observed on the sample obtained after heating. The first endotherm might be caused by re-adsorption of moisture. Since ˜3.5 wt % acetone was still detected from NMR, Compound B Form A is expected to be an acetone/H2O co-solvate. […]

[2] = Form change before and after drying (XRPD); conditions: for Form change before and after drying: air dried at RT
Experimental: The wet sample was vacuum dried at RT for 3 hrs. […] A solid was obtained with a yield of 62.2%. […] (peak temperature). Based on the integrals in NMR spectrum, the stoichiometric ratio of adipic acid:freebase was determined to be 1.06. A peak of EtOAc was observed. Around 0.07 molar EtOAc (0.8 wt %) was detected, which was consistent with TGA weight loss.
(peak), and one small endotherm at 158.8° C. […] Based on the integrals, the stoichiometric ratio of adipic acid:freebase was determined to be 1.65.
(peak temperature). Based on the integrals, the stoichiometric ratio of adipic acid:freebase was determined to be 1.06. Peak of THF was observed. Around 0.17 molar THF (1.9 wt %) was detected, which was consistent with TGA weight loss.
Compound B Form A was obtained from an acetone system and the sample was air dried at RT. […] (peak temperature) before the possible overlapped peak with peak temperature at 156.3° C. (FIG. 12). Based on the integrals, the stoichiometric ratio of fumaric acid:freebase was determined to be 1.03. A peak of acetone was observed and approximately 0.49 molar acetone (4.4 wt %) was detected. The HPLC purity of Compound B Form A was determined to be 93.56 area %. […] Around 0.39 molar acetone (3.5 wt %) was still detected. One endotherm at 58.7° C. and an overlapped peak with peak temperature at 157.1° C. were still observed on the sample obtained after heating. The first endotherm might be caused by re-adsorption of moisture. Since ˜3.5 wt % acetone was still detected from NMR, Compound B Form A is expected to be an acetone/H2O co-solvate.
Compound C Form A was obtained from EtOAc system and the sample was air dried at RT. […] HPLC purity of Compound C Form A was determined to be 95.18 area %.

[3] = Approximate solubility at RT (stepwise solvent addition until visually dissolved)
Experimental: The solubility of starting material was estimated at RT in 20 solvents. For each experiment, approximately 2 mg of sample was added into a 3-mL glass vial. Solvents in Table 32 were then added stepwise (50, 50, 200, 700 μL) into the vials until the solids were dissolved visually or a total volume of 1 mL was reached.

[4] = VH-XRPD analysis / transitions of forms at varying relative humidity; conditions: dehydrated
From the text: FIG. 19. The sample then reverts to the original form upon reaching 30% RH. […] Transitions of Forms of Compound A at varying RH.

[5] = Static storage at 25° C./97% RH and 40° C./75% RH; conditions: after 7 days
Experimental: Amorphous material of Compound A (mono adipate salt) was successfully prepared through freeze drying. Characterisation of the initial batch of samples were all shown to be amorphous by XRPD and the NMR's contained ca. 1.1 eq. adipic acid with varying quantities of residual solvent, except for acetonitrile/water (1:1) which contained no residual solvent. […] Static storage at 25° C./97% RH and 40° C./75% RH after 7 days were all shown to have deliquesced.

[6] = Slurry competition between Compound A Form A and B
Experimental: The suspensions were stirred at a speed of 750 rpm and tested by XRPD in transmission mode.

[7] = heating to 100° C. under N2 protection, cooled down and exposed to ambient conditions

With `C=CC(=O)N1CCN(c2nc(OC[C@@H]3CCCN3C)nc3c(F)c(-c4nc(N)cc(C)c4C(F)(F)F)c(Cl)cc23)[C@@H](C)C1.CC(=O)O` (atropisomer, axis not shown) [Compound F Form A] as the compound, how does the “Form change after heating” value [1, 7] read?
The value was “no form change was observed”.

Which results are given for `C=CC(=O)N1CCN(c2nc(OC[C@@H]3CCCN3C)nc3c(F)c(-c4nc(N)cc(C)c4C(F)(F)F)c(Cl)cc23)[C@@H](C)C1` [Compound C Form A]?
Form change after heating ([1]; heating to 100° C. under N2 protection, cooled down and exposed to ambient conditions, listed as Form A of Compound C): no form change was observed; Form change before and after drying [2]: No form change was observed

What does the source list for `C=CC(=O)N1CCN(c2nc(OC[C@@H]3CCCN3C)nc3c(F)c(-c4nc(N)cc(C)c4C(F)(F)F)c(Cl)cc23)[C@@H](C)C1` [starting material]?
Solubility ([3]; 1,4-Dioxane): S > 38.0 mg/mL; Solubility ([3]; 2-MeTHF): S > 40.0 mg/mL; Solubility ([3]; Acetone): S > 40.0 mg/mL; Solubility ([3]; Anisole): S > 38.0 mg/mL; Solubility ([3]; CPME): S > 40.0 mg/mL; Solubility ([3]; DCM): S > 38.0 mg/mL; Solubility ([3]; DMSO): S > 38.0 mg/mL; Solubility ([3]; EtOAc): S > 40.0 mg/mL; Solubility ([3]; H2O): S < 2.1 mg/mL; Solubility ([3]; IPAc): S > 40.0 mg/mL; Solubility ([3]; MEK): S > 46.0 mg/mL; Solubility ([3]; MIBK): S > 42.0 mg/mL; Solubility ([3]; MeOH): S > 42.0 mg/mL; Solubility ([3]; THF): S > 44.0 mg/mL; Solubility ([3]; Toluene): S > 40.0 mg/mL; Solubility ([3]; n-Heptane): S < 2.0 mg/mL

What does the source list for `C=CC(=O)N1CCN(c2nc(OC[C@@H]3CCCN3C)nc3c(F)c(-c4nc(N)cc(C)c4C(F)(F)F)c(Cl)cc23)[C@@H](C)C1` [Compound A Form B]?
Form change after heating ([1]; heating to 90° C. under N2 protection): no form change was observed; Form change after drying ([2]; air drying at RT overnight): No form change was observed

For `C=CC(=O)N1CCN(c2nc(OC[C@@H]3CCCN3C)nc3c(F)c(-c4nc(N)cc(C)c4C(F)(F)F)c(Cl)cc23)[C@@H](C)C1` [Compound A Form D], which Form after dehydration [4] is on record?
Its Form after dehydration is “formed Compound A Form C”.

Which Static storage observation ([5]; 25° C./97% RH) does the source give for `C=CC(=O)N1CCN(c2nc(OC[C@@H]3CCCN3C)nc3c(F)c(-c4nc(N)cc(C)c4C(F)(F)F)c(Cl)cc23)[C@@H](C)C1.O=C(O)CCCCC(=O)O` [Amorphous material of Compound A] here?
Its Static storage observation is “deliquesced”.

And the Static storage observation ([5]; 40° C./75% RH)?
Its Static storage observation is “deliquesced”.

For `C=CC(=O)N1CCN(c2nc(OC[C@@H]3CCCN3C)nc3c(F)c(-c4nc(N)cc(C)c4C(F)(F)F)c(Cl)cc23)[C@@H](C)C1.O=C(O)CCCCC(=O)O` [Compound A Form A + B], which “Slurry competition result (XRPD form)” value ([6]; IPA, 5° C.) is on record?
Its value is “Compound A Form A”.

What about the “Slurry competition result (XRPD form)” value ([6]; IPA, 5° C., listed as Compound A Form A+B) of the same compound?
Its value is “turned to Compound A Form A”.

What about the “Slurry competition result (XRPD form)” value ([6]; IPA, −20° C.) of the same compound?
Its value is “Compound A Form A”.

And the “Slurry competition result (XRPD form)” value ([6]; IPA, −20° C., listed as Compound A Form A+B)?
Its value is “turned to Compound A Form A”.

What about the “Slurry competition result (XRPD form)” value ([6]; Toluene, 5 to RT (RT for 18 days)) of the same compound?
The value was “Compound A Form A”.

What about the “Slurry competition result (XRPD form)” value ([6]; Toluene, 5 to RT (RT for 18 days), listed as Compound A Form A+B) of the same compound?
Its value is “Compound A Form A was observed”.

What about the “Slurry competition result (XRPD form)” value ([6]; Toluene, 5° C., after 5 days) of the same compound?
The value was “a mixture of Compound A Form A+B was observed”.

For `C=CC(=O)N1CCN(c2nc(OC[C@@H]3CCCN3C)nc3c(F)c(-c4nc(N)cc(C)c4C(F)(F)F)c(Cl)cc23)[C@@H](C)C1.O=C(O)/C=C/C(=O)O` (atropisomer, axis not shown) [Compound B Form A], which “Form change after heating” value [1, 7] is on record?
Its value is “no form change was observed”.

What about the “Form change before and after drying” value [2] of the same compound?
The value was “No form change was observed”.
